ChEMBL document CHEMBL2010752, “Synthesis and biological evaluation of benzoisothiazole derivatives possessing N,N-dimethylformimidamide group as 5-HT₆ receptor antagonists” (Bioorg Med Chem, 2012)

Tests used:
Format in all cases: functional, cell-based
[1] = molecular target: T1, 5-hydroxytryptamine receptor 6 (Homo sapiens, UniProt P50406); test: Antagonist activity at human recombinant 5HT6 receptor expressed in HeLa cells assessed as inhibition of 5HT-induced intracellular calcium level at 10 uM incubated for 15 mins prior to 5HT-induction measured after 1 hr by fluo-4-AM-based fluorimetry
T1 sequence (P50406 whole entry): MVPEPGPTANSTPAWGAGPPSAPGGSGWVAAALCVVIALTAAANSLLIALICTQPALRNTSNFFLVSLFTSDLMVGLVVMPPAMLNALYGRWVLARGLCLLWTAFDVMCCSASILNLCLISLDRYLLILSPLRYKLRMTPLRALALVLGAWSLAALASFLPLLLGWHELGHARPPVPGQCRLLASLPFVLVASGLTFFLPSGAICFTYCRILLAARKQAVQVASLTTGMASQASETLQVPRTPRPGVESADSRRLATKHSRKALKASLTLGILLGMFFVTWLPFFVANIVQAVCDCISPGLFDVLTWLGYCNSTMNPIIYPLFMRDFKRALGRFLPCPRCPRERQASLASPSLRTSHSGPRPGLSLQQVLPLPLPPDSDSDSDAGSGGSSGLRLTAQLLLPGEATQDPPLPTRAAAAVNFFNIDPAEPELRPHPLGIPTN

[2] = molecular target: T1, 5-hydroxytryptamine receptor 6; test: Antagonist activity at human recombinant 5HT6 receptor expressed in HeLa cells assessed as inhibition of 5HT-induced intracellular calcium level incubated for 15 mins prior to 5HT-induction measured after 1 hr by fluo-4-AM-based fluorimetry
[3] = molecular target: T1, 5-hydroxytryptamine receptor 6; test: Antagonist activity at human 5HT6 receptor expressed in HEK293 cells assessed as inhibition of 5HT-induced intracellular calcium level at 10 uM incubated for 15 mins prior to 5HT-induction measured after 1 hr by fluo-4-AM-based fluorimetry
[4] = molecular target: 5-hydroxytryptamine receptor 4 (Homo sapiens) (UniProt Q13639); test: Antagonist activity at human 5HT4 receptor expressed in HEK293 cells assessed as inhibition of 5HT-induced intracellular calcium level at 10 uM incubated for 15 mins prior to 5HT-induction measured after 1 hr by fluo-4-AM-based fluorimetry
Sequence of 5-hydroxytryptamine receptor 4 (Homo sapiens) (Q13639 whole entry): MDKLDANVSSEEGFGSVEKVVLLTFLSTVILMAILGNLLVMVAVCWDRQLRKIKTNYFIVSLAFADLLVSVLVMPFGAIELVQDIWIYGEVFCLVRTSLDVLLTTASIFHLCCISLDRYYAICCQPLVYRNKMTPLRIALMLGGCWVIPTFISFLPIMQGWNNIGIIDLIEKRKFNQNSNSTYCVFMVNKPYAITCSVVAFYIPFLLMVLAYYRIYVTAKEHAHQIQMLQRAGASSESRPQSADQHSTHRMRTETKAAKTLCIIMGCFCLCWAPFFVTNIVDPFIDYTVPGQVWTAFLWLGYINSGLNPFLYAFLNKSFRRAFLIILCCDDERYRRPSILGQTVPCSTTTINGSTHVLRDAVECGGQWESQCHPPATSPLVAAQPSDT

[5] = molecular target: 5-hydroxytryptamine receptor 7 (Homo sapiens) (UniProt P34969); test: Antagonist activity at human 5HT7 receptor expressed in HEK293 cells assessed as inhibition of 5HT-induced intracellular calcium level at 10 uM incubated for 15 mins prior to 5HT-induction measured after 1 hr by fluo-4-AM-based fluorimetry
Sequence of 5-hydroxytryptamine receptor 7 (Homo sapiens) (P34969 whole entry): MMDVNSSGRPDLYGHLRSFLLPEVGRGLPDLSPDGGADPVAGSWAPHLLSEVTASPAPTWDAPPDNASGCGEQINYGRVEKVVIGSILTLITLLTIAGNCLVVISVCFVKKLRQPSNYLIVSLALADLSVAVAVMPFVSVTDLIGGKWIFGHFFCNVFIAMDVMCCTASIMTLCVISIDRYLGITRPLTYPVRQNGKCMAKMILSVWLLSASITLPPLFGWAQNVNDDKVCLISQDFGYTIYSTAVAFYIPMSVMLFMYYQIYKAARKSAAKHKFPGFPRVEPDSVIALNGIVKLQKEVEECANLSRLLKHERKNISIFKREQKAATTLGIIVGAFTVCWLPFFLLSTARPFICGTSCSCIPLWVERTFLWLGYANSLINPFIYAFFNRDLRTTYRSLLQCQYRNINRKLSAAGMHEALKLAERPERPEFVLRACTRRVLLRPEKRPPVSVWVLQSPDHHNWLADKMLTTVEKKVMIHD

| inhibition [1] [%] | IC50 [2] [nM] | inhibition [3] [%] | inhibition [4] [%] | inhibition [5] [%] | Compound |
| --- | --- | --- | --- | --- | --- |
| 42.6 | – | – | – | – | CN(C)/C=N/c1nsc2ccc(NS(=O)(=O)c3ccccc3)cc12 |
| 43.5 | – | – | – | – | CN(C)/C=N/c1nsc2ccc(NS(=O)(=O)c3cccc4ccccc34)cc12 |
| 9.8 | – | – | – | – | CN(C)/C=N/c1nsc2ccc(NS(=O)(=O)c3ccc([N+](=O)[O-])cc3)cc12 |
| 10.8 | – | – | – | – | CN(C)/C=N/c1nsc2ccc(NS(=O)(=O)c3c(F)cccc3F)cc12 |

Second part, the compound before the results:

| Compound | inhibition [1] [%] | IC50 [2] [nM] | inhibition [3] [%] | inhibition [4] [%] | inhibition [5] [%] |
| --- | --- | --- | --- | --- | --- |
| CN(C)/C=N/c1nsc2ccc(NS(=O)(=O)c3ccc4ccccc4c3)cc12 | 99.1 | 440 | 98.8 | 17.4 | 28.9 |
| Cc1ccc(S(=O)(=O)Nc2ccc3snc(/N=C/N(C)C)c3c2)cc1 | 84.3 | 360 | 86.5 | 21.9 | 68.8 |
| CC(C)c1ccc(S(=O)(=O)Nc2ccc3snc(/N=C/N(C)C)c3c2)cc1 | 27 | – | – | – | – |
| CN(C)/C=N/c1nc2cc(NS(=O)(=O)c3cccc4ccccc34)ccc2s1 | 25.5 | – | – | – | – |
| CN(C)/C=N/c1nsc2ccc(NS(=O)(=O)c3ccc(F)cc3)cc12 | 20.2 | – | – | – | – |
| CN(C)/C=N/c1nc2cc(NS(=O)(=O)c3ccc4ccccc4c3)ccc2s1 | 66.3 | – | – | – | – |
| CN(C)/C=N/c1nsc2ccc(NS(=O)(=O)c3cccc4cccnc34)cc12 | 12.1 | – | – | – | – |
| CN(C)/C=N/c1nsc2ccc(NS(=O)(=O)c3ccc(Cl)cc3)cc12 | 51.1 | 3600 | 53.9 | 11.6 | 40.2 |
